{"source": "patent US20230181512A1", "about": "“METHODS FOR THE TREATMENT OF INFANTILE SPASMS USING MEDIUM CHAIN TRIGLYCERIDES” (Cerecin Inc., priority 2020, published 2023)", "key": {"[1]": {"tested_on": "rat triple hit model of IS", "assay": "Rat triple hit model of IS (DOX, LPS, PCPA): spasm frequency", "assay_type": "in vivo, Sprague Dawley rats", "conditions": "for spasms/hr / spasms/hour: P5-P7, scored on P7; for spasms/hour: vehicle/milk only mean 4.5 (SD 2.3)", "description": "Various animal models of IS have been created as tools to test efficacy of various interventions. One such example is a rat triple hit model developed by Scantlebury and co-authors. This model was developed “based on evidence that structural or functional abnormalities in cortical or subcortical structures may be necessary to produce IS.” [11]. The model uses three lesions to induce infantile spasms. The lesions include doxorubicin (DOX), lipopolysaccharide (LPS) and p-chlorophenylalanine (PCPA). DOX is an inhibitor of topo isomerase 2 that results in diffuse brain damage involving the forebrain and brainstem when injected intraventricularly. LPS can stimulate the release of inflammatory cytokines in various cell types, leading to an acute inflammatory response. Intracerebral injection of LPS in rat pups activates inflammatory cascades resulting in hypomyelination, white matter rarefaction and necrosis. PCPA depletes serotonin by inhibiting the enzyme tryptophan hydroxylase.\nIn accordance with embodiments of the disclosure, tricaprilin was tested for its ability to reduce spasm frequency in this triple hit model. These studies were done using timed pregnant Sprague Dawley rats. Animals were maintained in a 12 hr light/dark cycle and had free access to food and water. The day of birth was considered as P0. Animal care and use conformed to institutional policy and guidelines of the American Association for the Accreditation of Laboratory Animal Care. All procedures and experiments were performed in accordance with the National Institute of Health Guide for the Care and Use of Laboratory Animals.\nAt postnatal day (P) 3 DOX (5 μg/2.5 μl) and LPS (3 μg/1.5 μl) were given intracerebrally and at P5 PCPA is given intraperitoneally (i.p.) (200 mg/kg). Intracerebral infusions of DOX and LPS were done stereotaxically under isoflurane anesthesia. Pups were positioned in a stereotaxic frame for neonatal rat surgery (Benchmark Angle One, MyNeurolab.com, St Louis Mo.). DOX was injected into the right lateral ventricle followed by LPS into the right parietal cortex. Pups were individually placed in beakers warmed in a water bath and filled with bedding (31-33° C.) and fed via a cheek cannula. Spasms begin at day P4 and continue to P13.\nTricaprilin was administered either by oral gavage (administered twice a day), or steadily in milk via the cheek cannula, from P5-P7. […] For gavage, tricaprilin was administered at 5 ml/kg/day and 10 ml/kg/day. When mixed with milk, tricaprilin was administered at 5, 10 and 30 ml/kg/day. Each group comprised 5 animals. Spasms were recorded and scored on P7, urine ketones collected on P7 at 6 and 12 hours after gavage and same timepoints for milk fed pups. The behaviors of the pups were monitored using a video camera for 2 hours twice daily from P4 (first post-operative day) until P20.\nThe frequency of spasms varied by concentration of tricaprilin used. […] With reference to FIG. 2B, when tricaprilin was mixed with milk at 5 ml/kg/day spasms/hr were 3.1 (SD 1.7, pvalue=0.300), at 10 ml/kg/day 3.0 (SD 0.8, pvalue=0.139), and at 30 ml/kg/day 1.75 (SD 1.7, pvalue 0.079)."}, "[2]": {"tested_on": "Infantile spasms (IS) patients", "conditions": "cited from earlier work"}, "[3]": {"conditions": "cited from earlier work; for adverse events (AEs) associated with treatment: IS treatment, refs [32], [1]"}}, "note": "“Also recorded” adds a separate entry of the source. Read-outs that look alike come from different tables or passages of the source.", "data": [{"compound": "CCCCCCCC(=O)OCC(COC(=O)CCCCCCC)OC(=O)CCCCCCC", "note": "[tricaprilin]", "values": [{"measurement": "spasms/hr", "setting": "[1]; mixed with milk 5 ml/kg/day, SD 1.7, pvalue=0.300", "result": 3.1, "unit": "spasms/hr"}, {"measurement": "spasms/hr", "setting": "[1]; mixed with milk 10 ml/kg/day, SD 0.8, pvalue=0.139", "result": 3.0, "unit": "spasms/hr"}, {"measurement": "spasms/hr", "setting": "[1]; mixed with milk 30 ml/kg/day, SD 1.7, pvalue 0.079", "result": 1.75, "unit": "spasms/hr"}, {"measurement": "spasms/hour", "setting": "[1]; oral gavage 5 ml/kg/day, SD 1.6, pvalue 0.155", "result": 2.3, "unit": "spasms/hour"}, {"measurement": "spasms/hour", "setting": "[1]; oral gavage 10 ml/kg, SD 0.9, pvalue=0.036", "result": 1.4, "unit": "spasms/hour"}, {"measurement": "effect on spasms compared to vehicle (in words)", "setting": "[1]; oral gavage and feeding in milk", "result": "reduction in spasms/hr; also recorded: reduces spasms"}]}, {"compound": "C[C@]12C=CC(=O)C=C1CC[C@@H]1[C@@H]2[C@@H](O)C[C@@]2(C)[C@H]1CC[C@]2(O)C(=O)CO", "note": "[Prednisolone]", "values": [{"measurement": "% of patient spasms stopped", "setting": "[2]; 40-60 mg/day, N 30, ref [17]", "result": 70, "unit": "%"}]}, {"compound": "C=CC(N)CCC(=O)O", "note": "(stereo not drawn) [VGB, Vigabatrin]", "values": [{"measurement": "% of patient spasms stopped", "setting": "[2]; 18-36 mg/kg/day, N 75, ref [18]", "result": 11, "unit": "%"}, {"measurement": "% of patient spasms stopped", "setting": "[2]; 100-148 mg/kg/day, N 67, ref [18]", "result": 36, "unit": "%"}, {"measurement": "% of patient spasms stopped", "setting": "[2]; 100-150 mg/kg/day, N 52, ref [17]", "result": 54, "unit": "%"}, {"measurement": "adverse events (AEs) associated with treatment", "setting": "[3]", "result": "sedation, irritability, insomnia and hypotonia"}, {"measurement": "visual field defects", "setting": "[3]; persist even with discontinuation of the drug, ref [1]", "result": "serious visual field defects that are permanent"}]}, {"compound": "C[C@]12C=CC(=O)C=C1CC[C@@H]1[C@@H]2C(=O)C[C@@]2(C)[C@H]1CC[C@]2(O)C(=O)CO", "note": "[Prednisone]", "values": [{"measurement": "% of patient spasms stopped", "setting": "[2]; 2 mg/kg/day, N 12, ref [19]", "result": 33, "unit": "%"}]}, {"compound": "Adrenocorticotropic hormone (SYSMEHFRWGKPVGKKRRPVKVYPNGAEDESAEAFPLEF; Corticotropin; UniProt P01189 138-176, looked up) [ACTH, first line hormonal therapy for IS]", "values": [{"measurement": "% of patient spasms stopped", "setting": "[2]; 20-20 IU/day, N 24, ref [16]", "result": 58, "unit": "%"}, {"measurement": "% of patient spasms stopped", "setting": "[2]; 150 IU/m2/day divided B.I.D., N 15, ref [13]", "result": 93, "unit": "%"}, {"measurement": "% of patient spasms stopped", "setting": "[2]; 150 IU/m2/day, N 26, ref Hrachovy, 1994 #681}", "result": 50, "unit": "%"}, {"measurement": "subjects responded with both clinical cessation of spasms and abolition of hypsarrhythmia on EEG", "setting": "[2]; high-dose natural ACTH 150 IU/m2/day given twice daily, 2 weeks then taper, Baram et al. [13]", "result": 87, "unit": "%"}, {"measurement": "adverse events (AEs) associated with treatment", "setting": "[3]", "result": "hypertension, immune suppression, infection, electrolyte imbalances, GI disturbances, ocular opacities, hypertrophic cardiomyopathy, cerebral atrophy and growth impairment"}]}]}
